Assay [1] in a line: Inhibition of V-ATPase (unknown origin). Set-up: species or system Homo sapiens.
For assay [2], the target named is T1, Serine/threonine-protein kinase ULK2 (Homo sapiens, UniProt Q8IYT8).
T1 sequence (Q8IYT8 whole entry): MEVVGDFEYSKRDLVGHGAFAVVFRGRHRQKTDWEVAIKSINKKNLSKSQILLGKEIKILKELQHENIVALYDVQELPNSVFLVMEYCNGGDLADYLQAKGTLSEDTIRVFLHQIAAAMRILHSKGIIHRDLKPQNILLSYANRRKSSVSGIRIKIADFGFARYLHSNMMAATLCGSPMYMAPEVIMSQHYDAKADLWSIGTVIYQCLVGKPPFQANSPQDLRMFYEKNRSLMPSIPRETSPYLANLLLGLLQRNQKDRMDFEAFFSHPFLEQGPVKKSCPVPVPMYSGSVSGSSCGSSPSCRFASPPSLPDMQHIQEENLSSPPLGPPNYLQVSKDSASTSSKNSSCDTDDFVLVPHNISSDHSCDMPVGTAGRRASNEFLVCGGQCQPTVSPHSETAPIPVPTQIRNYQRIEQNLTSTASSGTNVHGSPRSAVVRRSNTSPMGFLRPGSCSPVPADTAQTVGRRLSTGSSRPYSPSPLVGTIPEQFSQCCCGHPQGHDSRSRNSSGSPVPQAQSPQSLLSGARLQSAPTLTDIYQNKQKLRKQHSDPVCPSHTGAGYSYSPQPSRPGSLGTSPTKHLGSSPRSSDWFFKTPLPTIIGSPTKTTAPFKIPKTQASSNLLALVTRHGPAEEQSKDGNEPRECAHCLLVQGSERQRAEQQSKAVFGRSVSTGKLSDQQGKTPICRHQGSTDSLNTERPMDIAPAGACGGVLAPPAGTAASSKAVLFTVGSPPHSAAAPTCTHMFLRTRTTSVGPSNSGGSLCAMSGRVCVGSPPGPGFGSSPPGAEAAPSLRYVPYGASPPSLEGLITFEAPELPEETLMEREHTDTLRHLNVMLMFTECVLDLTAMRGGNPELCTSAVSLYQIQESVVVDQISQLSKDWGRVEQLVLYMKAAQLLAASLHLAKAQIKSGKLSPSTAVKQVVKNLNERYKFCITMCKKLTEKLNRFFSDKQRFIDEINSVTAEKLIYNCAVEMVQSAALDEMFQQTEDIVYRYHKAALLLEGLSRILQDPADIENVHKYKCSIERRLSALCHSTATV
Nature of the assay: Inhibition of ULK2 (unknown origin).

Assay [3] deals with T2, Serine/threonine-protein kinase ULK1 (Homo sapiens, UniProt O75385).
T2 sequence (O75385 whole entry): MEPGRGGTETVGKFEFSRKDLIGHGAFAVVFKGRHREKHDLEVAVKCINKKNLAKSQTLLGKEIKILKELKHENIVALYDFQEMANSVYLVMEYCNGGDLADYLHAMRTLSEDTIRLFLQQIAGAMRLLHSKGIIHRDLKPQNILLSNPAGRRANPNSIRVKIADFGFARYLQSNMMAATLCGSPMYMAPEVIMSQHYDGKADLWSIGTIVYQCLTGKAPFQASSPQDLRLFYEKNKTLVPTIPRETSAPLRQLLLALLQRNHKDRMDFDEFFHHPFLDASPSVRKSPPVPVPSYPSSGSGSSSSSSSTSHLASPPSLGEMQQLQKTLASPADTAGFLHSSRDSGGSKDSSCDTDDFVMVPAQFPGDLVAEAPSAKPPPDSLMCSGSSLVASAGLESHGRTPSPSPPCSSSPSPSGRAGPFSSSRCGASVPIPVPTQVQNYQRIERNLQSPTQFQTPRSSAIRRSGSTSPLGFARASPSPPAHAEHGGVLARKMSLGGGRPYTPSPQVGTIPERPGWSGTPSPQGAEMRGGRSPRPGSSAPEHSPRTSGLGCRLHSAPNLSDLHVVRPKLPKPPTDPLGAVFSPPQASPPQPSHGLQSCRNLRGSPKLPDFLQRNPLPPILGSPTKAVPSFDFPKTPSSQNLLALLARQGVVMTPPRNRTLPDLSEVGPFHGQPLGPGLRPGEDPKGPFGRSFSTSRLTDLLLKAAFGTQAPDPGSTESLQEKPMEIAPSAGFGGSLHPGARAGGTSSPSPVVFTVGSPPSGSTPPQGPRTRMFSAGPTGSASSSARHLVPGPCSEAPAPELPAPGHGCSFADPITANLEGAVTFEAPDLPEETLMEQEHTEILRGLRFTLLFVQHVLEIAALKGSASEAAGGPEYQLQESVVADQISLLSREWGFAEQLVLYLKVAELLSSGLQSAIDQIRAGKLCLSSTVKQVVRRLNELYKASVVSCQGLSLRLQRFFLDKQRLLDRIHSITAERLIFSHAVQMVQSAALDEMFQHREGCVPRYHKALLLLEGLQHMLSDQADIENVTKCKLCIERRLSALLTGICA
Nature of the assay: Inhibition of ULK1 (unknown origin).

Assay [4] addresses AMP-activated protein kinase, AMPK. Nature of the assay: Inhibition of rat AMPK. It is filed as protein-complex assay.
Assay [5] deals with BT-474. Nature of the assay: Inhibition of autophagy in human BT-474 cells. It is filed as functional, cell-based.
In assay [6] the test system is U2OS. Nature of the assay: Inhibition of autophagy in human U2OS cells expressing tfLC3 incubated for 3 hrs by fluorescent microscopy. Type of assay: functional, cell-based.
The test system of assay [7] is U2OS. Description: Cytotoxicity against human U2OS cells. Type of assay: functional, cell-based.
Assay [8] is described as follows: Inhibition of bafilomycin induced autophagic flux in mouse embryonic fibroblast cells assessed as fold change in LC3-II levels at 1 uM incubated for 1 hr by immunoblot analysis relative to control. It is filed as functional.
For assay [9], the target named is Phosphatidylinositol 4,5-bisphosphate 3-kinase catalytic subunit gamma isoform (Homo sapiens, UniProt P48736). Description: Inhibition of P13Kgamma (unknown origin).
Sequence of Phosphatidylinositol 4,5-bisphosphate 3-kinase catalytic subunit gamma isoform (P48736 whole entry, canonical isoform): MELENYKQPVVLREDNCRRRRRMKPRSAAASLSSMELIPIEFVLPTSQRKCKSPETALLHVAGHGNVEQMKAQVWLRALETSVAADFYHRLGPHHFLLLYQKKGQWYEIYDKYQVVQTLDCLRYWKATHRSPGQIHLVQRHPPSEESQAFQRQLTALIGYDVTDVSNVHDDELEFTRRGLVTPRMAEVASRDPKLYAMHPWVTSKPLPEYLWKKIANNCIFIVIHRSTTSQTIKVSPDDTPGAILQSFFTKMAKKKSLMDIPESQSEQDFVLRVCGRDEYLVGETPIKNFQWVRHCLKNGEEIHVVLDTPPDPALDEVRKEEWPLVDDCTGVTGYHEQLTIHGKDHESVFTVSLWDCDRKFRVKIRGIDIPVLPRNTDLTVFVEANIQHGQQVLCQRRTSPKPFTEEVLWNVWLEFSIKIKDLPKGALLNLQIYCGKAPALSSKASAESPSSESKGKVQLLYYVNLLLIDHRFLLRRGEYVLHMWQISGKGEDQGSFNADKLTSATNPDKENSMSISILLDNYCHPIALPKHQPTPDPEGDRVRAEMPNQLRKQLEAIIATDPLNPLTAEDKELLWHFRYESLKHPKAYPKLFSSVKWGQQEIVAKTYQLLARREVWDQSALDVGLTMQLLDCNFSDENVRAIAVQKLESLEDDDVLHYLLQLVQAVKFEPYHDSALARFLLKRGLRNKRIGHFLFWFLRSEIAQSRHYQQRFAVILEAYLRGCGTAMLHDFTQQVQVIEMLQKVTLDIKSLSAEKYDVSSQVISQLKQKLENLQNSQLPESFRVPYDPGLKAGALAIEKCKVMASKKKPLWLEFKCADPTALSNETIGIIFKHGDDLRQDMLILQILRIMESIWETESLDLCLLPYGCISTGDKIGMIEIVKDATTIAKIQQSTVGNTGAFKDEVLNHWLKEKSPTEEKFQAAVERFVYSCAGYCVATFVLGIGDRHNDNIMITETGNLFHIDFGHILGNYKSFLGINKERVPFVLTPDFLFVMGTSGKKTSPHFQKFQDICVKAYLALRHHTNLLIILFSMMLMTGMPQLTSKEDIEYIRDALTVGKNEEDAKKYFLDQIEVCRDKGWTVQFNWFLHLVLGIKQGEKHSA

For orientation: IC50 means the point on the concentration scale where inhibition reaches its midpoint. Low readings indicate inhibition by little substance, high ones a need for much substance. Broadly, the EC50 is the concentration at which the effect is half-maximal.

In assay [1], `CO/C1=C\C(C)=C\[C@@H](C)[C@@H](O)[C@@H](C)C/C(C)=C/C=C/[C@H](OC)[C@@H]([C@@H](C)[C@@H](O)[C@H](C)[C@@]2(O)C[C@@H](O)[C@H](C)[C@@H](C(C)C)O2)OC1=O` [BAFILOMYCIN A1] yielded an IC50 of 0.44 nM.

Consider `CC(C)[C@H](NC(=O)c1cc(C2C=C3N=C(c4ccc(OCCN5CCCCC5)cc4)C=CN3N2)cs1)C(F)(F)F` (some centres undefined), for which the 50% inhibitory concentration (IC50) amounted to 2.6 nM in assay [2] and 1.6 nM in assay [3]. For the molecule `O=C(N[C@@H](C1CC1)C(F)(F)F)c1cc(C2C=C3N=C(c4ccc(F)cc4)C=CN3N2)cs1` (some centres undefined), the half-inhibitory concentration (IC50) in assay [2] turned out to be 30 nM; in [3] it was 8.3 nM. The molecule `CCN(CC)CCNC(=O)c1c(C)[nH]c(/C=C2\C(=O)Nc3ccc(F)cc32)c1C` [SUNITINIB] had a half-inhibitory concentration (IC50) in assay [4] of 62 nM. Turning to `CN1CCN(Cc2cc(CNC3(c4ccccc4F)CCCC3)ccc2O)CC1`, in assay [5] (read-out: EC50), the EC50 was 9500 nM. With `CCN(CC)CCCC(C)Nc1ccnc2cc(Cl)ccc12` (centres undefined) [CHLOROQUINE], in [5], the EC50 was 4800 nM. Consider `COc1ccc2nc3cc(Cl)ccc3c(NCCCCN3CCN(C)CC3)c2c1`, for which, in assay [6], the EC50 came to 100 nM. For the same molecule, it took 700 nM to reach half-maximal inhibition in [7] (IC50). Consider `O=C(NCCCNc1nc(Nc2cccc(CN3CCOCC3)c2)ncc1C1CC1)C1CC1`, for which the “fold change (FC)” value in assay [8] stood at 2. Further, the IC50 was found to be 1.1 nM in [2] and 2.9 nM in [3]. Molecule `Cn1cnc(N)c2ncnc1-2` [3-METHYLADENINE] gave an IC50 in [9] of 60000 nM. In the case of `c1cc(-c2cnn3cc(-c4ccc(OCCN5CCCCC5)cc4)cnc23)ccn1` [DORSOMORPHIN], the half-maximal inhibitory concentration (IC50) in assay [4] was 1280 nM. `CCN(CC)CCCC(C)Nc1c2ccc(Cl)cc2nc2ccc(OC)cc12` (centres undefined) [QUINACRINE]: the half-maximal effective concentration (EC50) in assay [6] turned out to be 250 nM. For the same molecule, the IC50 in [7] turned out to be 2500 nM. Regarding `CN1CCN(CCNc2c3ccccc3nc3cc(Cl)ccc23)CC1`, it took 5000 nM to reach a half-maximal effect in [6] (EC50). The molecule also returned a half-maximal inhibitory concentration (IC50) in assay [7] of 27000 nM.
